Patent publication US12691100B2, “NMT inhibitor treatment of a senescence-associated disease or disorder of the liver” (Imperial College Innovations Limited, priority 2020, dated 2026)

Key:
IMR90 cells = assay: Senolytic survival assay, doxorubicin-induced senescence; type: cell-based, human; conditions: doxorubicin or DMSO; compounds added 7 days after induction; read 7 days later; FIGS. 3A-B
Experimental: IMR90 cells were used to generate inducible ER:RAS (hereinafter iRAS) cells to model Oncogene induced senescence (OIS), through retroviral infection of pLNC-ER:RAS-neo into IMR90 cells followed by selection with Neomycin. IMR90 cells containing the pLNC-ER:RAS plasmid backbone pLXSN were infected in parallel to assess leakiness in the pLNC-ER:RAS system. Treatment with 100 nM 4OHT (Sigma, in DMSO) was used to induce IMR90 ER:RAS cells to undergo oncogene induced senescence (OIS). […]
High-throughput microscopy survival assay—To assess senolytic effect of drugs, cells were cultured for 7 days, culture media was changed to DM0.5 media and drugs in DMSO were added (<5% v/v final concentration), drugs were replenished after 3 days if assay length was longer than 72 h. […] Image acquisition of DAPI stained cells was performed on an automated InCell Analyser 2000 (GE Healthcare®) and high-content analysis on the InCell Investigator 2.7.3 software used to quantify number of DAPI positive cells per well. […] Survival was measured as cell counts relative to DMSO treated quiescent or senescent cells.
IMR90 cells were treated with doxorubicin (to induce senescence), or DMSO (as a control). […] Senolytic activity of inhibitors was determined 7 days after adding the drugs with replenishment after 3 days, cells were fixed, imaged and cells numbers were quantified using high throughput microscopy. […]

[1] = test system: HCT116 colon cancer cells; assay: Senolytic survival assay, chemotherapy-induced senescence in cancer cells; type: cell-based, human; conditions: for Survival, senescent versus control cells: second experiment: doxorubicin 100 nM, etoposide 2 μM or cisplatin 100 μM, or DMSO, replenished after 72 h, 48 h more, FIGS. 7A-C
Experimental: IMR90 cells were used to generate inducible ER:RAS (hereinafter iRAS) cells to model Oncogene induced senescence (OIS), through retroviral infection of pLNC-ER:RAS-neo into IMR90 cells followed by selection with Neomycin. IMR90 cells containing the pLNC-ER:RAS plasmid backbone pLXSN were infected in parallel to assess leakiness in the pLNC-ER:RAS system. Treatment with 100 nM 4OHT (Sigma, in DMSO) was used to induce IMR90 ER:RAS cells to undergo oncogene induced senescence (OIS). Therapy induced senescence (TIS) was induced in IMR90 cells by treatment with 33 μM (50 ug/ml) bleomycin sulphate (Generon, HY-17565) for 24 hours, 20 μM palbociclib (Selleckchem, S1116) for 7 days or 100 nM doxorubicin (Cayman chemical, 15007) for 7 days. Senescence was induced in SK-HEP-1 cells by treatment with 2 μM etoposide (Sigma-Aldrich, E1383) for 7 days (FIGS. 4A-C). HCT-116 senescence was induced by 250 nM treatment with doxorubicin (Cayman chemical, 15007) for 48 hours followed by 5 days culture in media without chemotherapy (FIG. 5), or by treatment with 100 nM doxorubicin, 2 μM etoposide or 100 μM cisplatin for 3 days followed by 4 days culture in media without chemotherapy (FIGS. 6A-7C). Senescence was induced in MCF7 by 200 nM treatment with doxorubicin for 7 days, 2 μM etoposide for 7 days or 10 μM cisplatin for 7 days (FIGS. 8A-9C).
High-throughput microscopy survival assay—To assess senolytic effect of drugs, cells were cultured for 7 days, culture media was changed to DM0.5 media and drugs in DMSO were added (<5% v/v final concentration), drugs were replenished after 3 days if assay length was longer than 72 h. Wells were fixed in 4% PFA for 1 hour at day 10 to 14, washed 3 times with PBS and then stained with 1 μg/mL DAPI (w/v, PBS) for 10 minutes. Wells were then washed 3 times with PBS. Optionally plates could be stored at 4° C. for up to 2 weeks and DAPI stained. Image acquisition of DAPI stained cells was performed on an automated InCell Analyser 2000 (GE Healthcare®) and high-content analysis on the InCell Investigator 2.7.3 software used to quantify number of DAPI positive cells per well. […] Survival was measured as cell counts relative to DMSO treated quiescent or senescent cells.
In a first experiment, HCT116 colon cancer cells were treated with doxorubicin (to induce senescence), or DMSO (as a control). […] 7 days after adding the drugs with replenishment after 3 days, cells were fixed, imaged and cells numbers were quantified using high throughput microscopy. […]
In a second experiment, HCT116 were treated with doxorubicin, etoposide or cisplatin (to induce senescence) or DMSO (as a control). 7 days after treatment, BrdU incorporation (to assess cell division), SA-β-Galactosidase activity and p21^CIP1 expression (as markers of senescence) were analysed. […]

Structure (SMILES)	Survival (cell counts relative to DMSO), senescent versus control cells (IMR90 cells)	Survival (cell counts relative to DMSO), senescent versus control cells ([1]; first experiment: doxorubicin or DMSO, compound added 7 days after induction, read 7 days later, FIG. 5)	Survival, senescent versus control cells [1]
Cc1nn(C)c(C)c1CCOc1c(-c2ccc3c(c2)c(CN(C)C)nn3C)ccc(F)c1F [Compound 1, 1-(5-(3,4-difluoro-2-(2-(1,3,5-trimethyl-1H-pyrazol-4-yl)ethoxy)phenyl)-1-methyl-1H-indazol-3-yl)-N,N-dimethylmethanamine]	selectively kill senescent cells induced to senescence by doxorubicin	preferentially kills cancer cells that undergo senescence after being treated with doxorubicin	preferentially kill cancer cells that undergo senescence after being treated with doxorubicin, etoposide or cisplatin
Cc1c(NS(=O)(=O)c2c(Cl)cc(-c3ccnc(N4CCNCC4)c3)cc2Cl)c(CC(C)C)nn1C [Compound 2]			preferentially kill cancer cells that undergo senescence after being treated with doxorubicin, etoposide or cisplatin
